Measurements: ChEMBL document CHEMBL1201861, “Genomics of Drug Sensitity in Cancer screening data, Wellcome Trust Sanger Institute”

What was measured:
CPC-N = assay: cells; assay type: functional, cell-based, Homo sapiens; conditions: Homo sapiens, CPC-N;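 further: growth inhibition of CPC-N cells, with a cell viability assay as the readout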
Description: SANGER: Inhibition of human CPC-N cell growth in a cell viability assay.

D-542MG = assay: cells; assay type: functional, cell-based, Homo sapiens; conditions: Homo sapiens, D-542MG
Description: SANGER: Inhibition of human D-542MG cell growth in a cell viability assay.

DMS-273 = assay: cells; assay type: functional, cell-based, Homo sapiens; conditions: Homo sapiens, DMS-273
Description: SANGER: Inhibition of human DMS-273 cell growth in a cell viability assay.

DoTc2-4510 = assay: cells; assay type: functional, cell-based, Homo sapiens; conditions: Homo sapiens, DoTc2-4510
EGI-1 = assay: cells; assay type: functional, cell-based, Homo sapiens; conditions: Homo sapiens, EGI-1;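 further: cell viability readout used to gauge growth inhibition of EGI-1 cells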
Description: SANGER: Inhibition of human EGI-1 cell growth in a cell viability assay.

EVSA-T = assay: cells; assay type: functional, cell-based, Homo sapiens; conditions: Homo sapiens, EVSA-T;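 further: growth inhibition of EVSA-T cells, read out with a cell viability assay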
Description: SANGER: Inhibition of human EVSA-T cell growth in a cell viability assay.

GAMG = assay: cells; assay type: functional, cell-based, Homo sapiens; conditions: Homo sapiens, GAMG;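 further: cell growth inhibition measured by a viability assay in the GAMG human cell line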
Description: SANGER: Inhibition of human GAMG cell growth in a cell viability assay.

GCT = assay: cells; assay type: functional, cell-based, Homo sapiens; conditions: Homo sapiens, GCT;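 further: GCT cell line proliferation inhibition, read out with a cell viability assay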
Description: SANGER: Inhibition of human GCT cell growth in a cell viability assay.

H4 = assay: cells; assay type: functional, cell-based, Homo sapiens; conditions: Homo sapiens, H4
Description: SANGER: Inhibition of human H4 cell growth in a cell viability assay.

HCC1419 = assay: cells; assay type: functional, cell-based, Homo sapiens; conditions: Homo sapiens, HCC1419;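 further: growth inhibition of human HCC1419 cells, read out as cell viability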
Description: SANGER: Inhibition of human HCC1419 cell growth in a cell viability assay.

HSC-4 = assay: cells; assay type: functional, cell-based, Homo sapiens; conditions: Homo sapiens, HSC-4;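 further: growth inhibition of human HSC-4 cells, read out with a cell viability assay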
Description: SANGER: Inhibition of human HSC-4 cell growth in a cell viability assay.

HuCCT-1 = assay: cells; assay type: functional, cell-based, Homo sapiens, HuCCT1; conditions: Homo sapiens, HuCCT-1;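 further: growth inhibition of HuCCT-1 cells, read out by a cell viability assay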
Description: SANGER: Inhibition of human HuCCT1 cell growth in a cell viability assay.

K052 = assay: cells; assay type: functional, cell-based, Homo sapiens; conditions: Homo sapiens, K052;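 further: Read-out from a cell viability assay, IC50 reflecting suppression of K052 cell growth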
Description: SANGER: Inhibition of human K052 cell growth in a cell viability assay.

KMS-12-PE = assay: cells; assay type: functional, cell-based, Homo sapiens; conditions: Homo sapiens, KMS-12-PE;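 further: growth inhibition of human KMS-12-PE cells, measured with a cell viability assay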
Description: SANGER: Inhibition of human KMS-12-PE cell growth in a cell viability assay.

KYSE-270 = assay: cells; assay type: functional, cell-based, Homo sapiens; conditions: Homo sapiens, KYSE-270;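 further: cell growth inhibition measured with a viability assay in the human KYSE-270 line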
Description: SANGER: Inhibition of human KYSE-270 cell growth in a cell viability assay.

LU-165 = assay: cells; assay type: functional, cell-based, Homo sapiens; conditions: Homo sapiens, LU-165
Description: SANGER: Inhibition of human LU-165 cell growth in a cell viability assay.

LoVo = assay: cells; assay type: functional, cell-based, Homo sapiens; conditions: Homo sapiens, LoVo;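 further: growth inhibition of human LoVo cells, read out with a cell viability assay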
Description: SANGER: Inhibition of human LoVo cell growth in a cell viability assay.

MDA-MB-175-VII = assay: cells; assay type: functional, cell-based, Homo sapiens; conditions: Homo sapiens, MDA-MB-175-VII
MDA-MB-361 = assay: cells; assay type: functional, cell-based, Homo sapiens; conditions: Homo sapiens, MDA-MB-361
ME-180 = assay: cells; assay type: functional, cell-based, Homo sapiens; conditions: Homo sapiens, ME-180;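 further: cell viability assay measuring growth inhibition of ME-180 cells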
Description: SANGER: Inhibition of human ME-180 cell growth in a cell viability assay.

MKN-28 = assay: cells; assay type: functional, cell-based, Homo sapiens; conditions: Homo sapiens, MKN-28;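 further: cell viability assay read-out, IC50 reflects suppression of growth of human MKN-28 cells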
Description: SANGER: Inhibition of human MKN28 cell growth in a cell viability assay.

NCCIT = assay: SANGER: Inhibition of human NCCIT cell growth in a cell viability assay.; assay type: functional, cell-based; conditions: Homo sapiens, NCCIT
NCI-H187 = assay: cells; assay type: functional, cell-based, Homo sapiens; conditions: Homo sapiens, NCI-H187;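 further: growth inhibition of NCI-H187 cells, read out as cell viability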
Description: SANGER: Inhibition of human NCI-H187 cell growth in a cell viability assay.

NCI-H1963 = assay: cells; assay type: functional, cell-based, Homo sapiens; conditions: Homo sapiens, NCI-H1963;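 further: cell growth inhibition of the human line, determined with a cell viability assay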
Description: SANGER: Inhibition of human NCI-H1963 cell growth in a cell viability assay.

NCI-H2171 = assay: cells; assay type: functional, cell-based, Homo sapiens; conditions: Homo sapiens, NCI-H2171;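 further: growth inhibition of human NCI-H2171 cells, read out by a cell viability assay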
Description: SANGER: Inhibition of human NCI-H2171 cell growth in a cell viability assay.

NCI-H2227 = assay: cells; assay type: functional, cell-based, Homo sapiens; conditions: Homo sapiens, NCI-H2227;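 further: growth inhibition of the human cell line, read out with a cell viability assay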
Description: SANGER: Inhibition of human NCI-H2227 cell growth in a cell viability assay.

NCI-H524 = assay: cells; assay type: functional, cell-based, Homo sapiens; conditions: Homo sapiens, NCI-H524;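 further: growth inhibition of human NCI-H524 cells, read out through a cell viability assay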
Description: SANGER: Inhibition of human NCI-H524 cell growth in a cell viability assay.

NCI-H64 = assay: cells; assay type: functional, cell-based, Homo sapiens; conditions: Homo sapiens, NCI-H64;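 further: growth inhibition of NCI-H64 cells, read out with a cell viability assay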
Description: SANGER: Inhibition of human NCI-H64 cell growth in a cell viability assay.

NCI-H650 = assay: cells; assay type: functional, cell-based, Homo sapiens; conditions: Homo sapiens, NCI-H650;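 further: growth inhibition of NCI-H650 cells, read out by a viability assay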
Description: SANGER: Inhibition of human NCI-H650 cell growth in a cell viability assay.

NUGC-3 = assay: cells; assay type: functional, cell-based, Homo sapiens; conditions: Homo sapiens, NUGC-3;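 further: growth inhibition of human NUGC-3 cells, read out with a cell viability assay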
Description: SANGER: Inhibition of human NUGC-3 cell growth in a cell viability assay.

OE33 = assay: cells; assay type: functional, cell-based, Homo sapiens; conditions: Homo sapiens, OE33;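 further: growth inhibition of human OE33 cells, measured by a cell viability assay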
Description: SANGER: Inhibition of human OE33 cell growth in a cell viability assay.

PC-3 = assay: cells; assay type: functional, cell-based, Homo sapiens; conditions: Homo sapiens, PC-3;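 further: cell viability assay measuring growth inhibition of PC-3 cells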
Description: SANGER: Inhibition of human PC-3 cell growth in a cell viability assay.

PF-382 = assay: cells; assay type: functional, cell-based, Homo sapiens; conditions: Homo sapiens, PF-382
Description: SANGER: Inhibition of human PF-382 cell growth in a cell viability assay.

RL95-2 = assay: cells; assay type: functional, cell-based; conditions: Homo sapiens;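 further: RL95-2 growth inhibition determined through a cell viability readout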
Description: SANGER: Inhibition of human RL95-2 cell growth in a cell viability assay.

SBC-5 = assay: cells; assay type: functional, cell-based, Homo sapiens; conditions: Homo sapiens, SBC-5;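 further: cell viability assay read-out, IC50 is the concentration that inhibits growth of the cells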
Description: SANGER: Inhibition of human SBC-5 cell growth in a cell viability assay.

SCC-25 = assay: cells; assay type: functional, cell-based, Homo sapiens; conditions: Homo sapiens, SCC-25;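 further: growth inhibition of SCC-25 cells, measured with a cell viability assay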
Description: SANGER: Inhibition of human SCC-25 cell growth in a cell viability assay.

SIG-M5 = assay: cells; assay type: functional, cell-based, Homo sapiens; conditions: Homo sapiens, SIG-M5;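 further: cell viability assay read-out, measuring how strongly growth of cultured human SIG-M5 cells is inhibited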
Description: SANGER: Inhibition of human SIG-M5 cell growth in a cell viability assay.

SK-MEL3 = assay: cells; assay type: functional, cell-based, Homo sapiens, SK-MEL-3; conditions: Homo sapiens, SK-MEL3;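 further: growth inhibition of human SK-MEL-3 cells, read out with a cell viability assay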
Description: SANGER: Inhibition of human SK-MEL-3 cell growth in a cell viability assay.

SW1573 = assay: cells; assay type: functional, cell-based, Homo sapiens; conditions: Homo sapiens, SW1573;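 further: growth inhibition of SW1573 cells, read out with a cell viability assay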
Description: SANGER: Inhibition of human SW1573 cell growth in a cell viability assay.

SiHa = assay: cells; assay type: functional, cell-based, Homo sapiens; conditions: Homo sapiens, SiHa;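 further: Viability-based readout of growth inhibition in SiHa cells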
Description: SANGER: Inhibition of human SiHa cell growth in a cell viability assay.

TALL-1 = assay: cells; assay type: functional, cell-based, Homo sapiens; conditions: Homo sapiens, TALL-1;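 further: growth inhibition of cultured human TALL-1 cells, read out by a cell viability assay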
Description: SANGER: Inhibition of human TALL-1 cell growth in a cell viability assay.

A2780 = assay: cells; assay type: functional, cell-based, Homo sapiens; conditions: Homo sapiens, A2780;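 further: growth inhibition of A2780 cells, read out with a cell viability assay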
Description: SANGER: Inhibition of human A2780 cell growth in a cell viability assay.

A-375 = assay: cells; assay type: functional, cell-based, Homo sapiens; conditions: Homo sapiens, A-375;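 further: growth inhibition of A375 cells, read out with a cell viability assay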
Description: SANGER: Inhibition of human A375 cell growth in a cell viability assay.

BFTC-909 = assay: cells; assay type: functional, cell-based, Homo sapiens; conditions: Homo sapiens, BFTC-909
Description: SANGER: Inhibition of human BFTC-909 cell growth in a cell viability assay.

C32 = assay: cells; assay type: functional, cell-based, Homo sapiens; conditions: Homo sapiens, C32;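 further: cell viability assay, with IC50 reflecting inhibition of C32 cell growth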
Description: SANGER: Inhibition of human C32 cell growth in a cell viability assay.

CAL-85-1 = assay: cells; assay type: functional, cell-based, Homo sapiens; conditions: Homo sapiens, CAL-85-1;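 further: growth inhibition of human CAL-85-1 cells, read out with a cell viability assay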
Description: SANGER: Inhibition of human CAL-85-1 cell growth in a cell viability assay.

UACC-812 = assay: cells; assay type: functional, cell-based, Homo sapiens; conditions: Homo sapiens, UACC-812
Description: SANGER: Inhibition of human UACC-812 cell growth in a cell viability assay.

YAPC = assay: cells; assay type: functional, cell-based, Homo sapiens; conditions: Homo sapiens, YAPC;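 further: growth inhibition of YAPC cells, measured with a cell viability assay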
Description: SANGER: Inhibition of human YAPC cell growth in a cell viability assay.

SMILES: N#Cc1c(O)c2c(-c3ccc(-c4ccccc4O)cc3)csc2[nH]c1=O
- IC50 (CPC-N): > 1020 nM
- IC50 (D-542MG): > 1020 nM
- IC50 (DMS-273): > 1020 nM
- IC50 (DoTc2-4510): > 1020 nM
- IC50 (EGI-1): > 1020 nM
- IC50 (EVSA-T): 381 nM
- IC50 (GAMG): > 1020 nM
- IC50 (GCT): > 1020 nM
- IC50 (H4): > 1020 nM
- IC50 (HCC1419): > 1020 nM
- IC50 (HSC-4): > 1020 nM
- IC50 (HuCCT-1): > 1020 nM
- IC50 (K052): 791 nM
- IC50 (KMS-12-PE): 419 nM
- IC50 (KYSE-270): > 1020 nM
- IC50 (LU-165): > 1020 nM
- IC50 (LoVo): > 1020 nM
- IC50 (MDA-MB-175-VII): > 1020 nM
- IC50 (MDA-MB-361): 860 nM
- IC50 (ME-180): > 1020 nM
- IC50 (MKN-28): > 1020 nM
- IC50 (NCCIT): > 1020 nM
- IC50 (NCI-H187): 545 nM
- IC50 (NCI-H1963): > 1020 nM
- IC50 (NCI-H2171): 622 nM
- IC50 (NCI-H2227): > 1020 nM
- IC50 (NCI-H524): > 1020 nM
- IC50 (NCI-H64): > 1020 nM
- IC50 (NCI-H650): > 1020 nM
- IC50 (NUGC-3): > 1020 nM
- IC50 (OE33): > 1020 nM
- IC50 (PC-3): > 1020 nM
- IC50 (PF-382): 85.9 nM
- IC50 (RL95-2): > 1020 nM
- IC50 (SBC-5): > 1020 nM
- IC50 (SCC-25): > 1020 nM
- IC50 (SIG-M5): 7.86 nM
- IC50 (SK-MEL3): > 1020 nM
- IC50 (SW1573): > 1020 nM
- IC50 (SiHa): > 1020 nM
- IC50 (TALL-1): > 1020 nM
- IC50 (A2780): > 1020 nM
- IC50 (A-375): > 1020 nM
- IC50 (BFTC-909): > 1020 nM
- IC50 (C32): > 1020 nM
- IC50 (CAL-85-1): > 1020 nM
- IC50 (UACC-812): > 1020 nM
- IC50 (YAPC): > 1020 nM

SMILES: C#Cc1cccc(Nc2ncnc3cc(OCCOC)c(OCCOC)cc23)c1 [ERLOTINIB]
- IC50 (CPC-N): > 2000 nM
- IC50 (D-542MG): > 2000 nM
- IC50 (EVSA-T): > 2000 nM
- IC50 (KMS-12-PE): > 2000 nM
- IC50 (LU-165): > 2000 nM
- IC50 (NCCIT): > 2000 nM
- IC50 (NCI-H187): > 2000 nM
- IC50 (NCI-H1963): > 2000 nM
- IC50 (NCI-H2171): > 2000 nM
- IC50 (NCI-H2227): > 2000 nM
- IC50 (NCI-H524): > 2000 nM
- IC50 (NCI-H64): > 2000 nM
- IC50 (PF-382): > 2000 nM
- IC50 (RL95-2): > 2000 nM
- IC50 (SIG-M5): > 2000 nM
- IC50 (UACC-812): > 2000 nM

SMILES: COc1cc2ncn(-c3cc(OCc4ccccc4S(C)(=O)=O)c(C#N)s3)c2cc1OC [GSK-319347A]
- IC50 (CPC-N): > 5000 nM
- IC50 (D-542MG): > 5000 nM
- IC50 (EVSA-T): > 5000 nM
- IC50 (K052): > 5000 nM
- IC50 (KMS-12-PE): > 5000 nM
- IC50 (LU-165): > 5000 nM
- IC50 (NCCIT): > 5000 nM
- IC50 (NCI-H187): > 5000 nM
- IC50 (NCI-H1963): > 5000 nM
- IC50 (NCI-H2171): > 5000 nM
- IC50 (NCI-H2227): > 5000 nM
- IC50 (NCI-H524): > 5000 nM
- IC50 (NCI-H64): > 5000 nM
- IC50 (PF-382): > 5000 nM
- IC50 (RL95-2): > 5000 nM
- IC50 (SIG-M5): > 5000 nM
- IC50 (TALL-1): > 5000 nM
- IC50 (UACC-812): > 5000 nM

SMILES: COc1cc(N2CCN(C)CC2)ccc1Nc1ncc2c(n1)N(C)c1ccccc1C(=O)N2C
- IC50 (CPC-N): > 8000 nM
- IC50 (D-542MG): 2000 nM
- IC50 (EVSA-T): > 8000 nM
- IC50 (K052): 6240 nM
- IC50 (KMS-12-PE): > 8000 nM
- IC50 (LU-165): > 8000 nM
- IC50 (NCCIT): 4150 nM
- IC50 (NCI-H187): > 8000 nM
- IC50 (NCI-H1963): > 8000 nM
- IC50 (NCI-H2171): > 8000 nM
- IC50 (NCI-H2227): > 8000 nM
- IC50 (NCI-H524): > 8000 nM
- IC50 (NCI-H64): > 8000 nM
- IC50 (PF-382): 4940 nM
- IC50 (RL95-2): > 8000 nM
- IC50 (SIG-M5): 5360 nM
- IC50 (TALL-1): > 8000 nM
- IC50 (UACC-812): > 8000 nM

SMILES: CC[C@H](CO)Nc1nc(NCc2ccccc2)c2ncn(C(C)C)c2n1 [SELICICLIB]
- IC50 (CPC-N): > 16000 nM
- IC50 (D-542MG): > 16000 nM
- IC50 (EVSA-T): > 16000 nM
- IC50 (KMS-12-PE): > 16000 nM
- IC50 (LU-165): > 16000 nM
- IC50 (NCCIT): 7550 nM
- IC50 (NCI-H187): > 16000 nM
- IC50 (NCI-H1963): > 16000 nM
- IC50 (NCI-H2171): > 16000 nM
- IC50 (NCI-H2227): > 16000 nM
- IC50 (NCI-H524): > 16000 nM
- IC50 (NCI-H64): > 16000 nM
- IC50 (PF-382): > 16000 nM
- IC50 (RL95-2): > 16000 nM
- IC50 (SIG-M5): > 16000 nM
- IC50 (TALL-1): > 16000 nM
- IC50 (UACC-812): > 16000 nM
